For orientation: melting point means the temperature, or range, at which the solid turns liquid.

The structures appear in SMILES notation.

In turn, `O=[N+]([O-])c1ccc(NCCSCc2c[nH]cn2)nc1` yielded a melting point of 145 to 147 °C. `CCC(=C(c1ccccc1)c1ccc(N(CCN(CC)CC)S(C)(=O)=O)cc1)c1ccc(OC)cc1` yielded a melting point of 120 to 130 °C. Take `Cc1ccc2c(c1)c(CCC(=O)O)c1n2C(=O)CCC1`: the melting point was in the range of 152 to 153 °C. As for `CC(C)=CCCC(C)=CCCC(C)=CCCC(C)=CC=C1SC(=S)N(CC(=O)O)C1=O`, the melting point was 35 to 37 °C. Turning to `O=Cc1coc2ccc(Br)cc2c1=O`, the melting point fell in the range of 186 to 188 °C. With `O=C(CC1CCCCC1)Nc1c(Cl)ccc2nc(N3CCC[C@@H](O)C3)ccc12` the figure was 209 to 214 °C; with `Cc1c(-c2ccccc2)oc2c(C(=O)NCCCN3CCC(C(=O)c4ccc(F)cc4)CC3)cccc2c1=O`, 181 to 183 °C. For the compound `CC(C)N=C(NC(C)C)ON=C1CCCCC1`, the melting point was in the range of 45 to 48 °C. As to `CCC(=O)c1cc2n(c(=O)c1C)Cc1cc3ccccc3nc1-2`, the melting point lay within 233 to 234 °C. The compound `Cc1c(CCN(C)C(=O)OC(C)(C)C)c2cc(S(=O)(=O)c3ccc(C(F)(F)F)cc3)ccc2n1C` registered a melting point of 141 to 144 °C. Consider `COc1ccc(C(=O)C2=C(c3ccccc3)c3ccccc3S2=O)cc1` (centres undefined), for which the melting point was in the range of 118 to 120 °C. For `Fc1ccc(-c2cn([C@H]3CN4CCC3CC4)nn2)cc1F`, the melting point was found to be 122 °C. With `COc1cccc(C(CNC(=O)Cc2c(Cl)cncc2Cl)C(C)C)c1` (centres undefined) the figure was 94 to 95 °C; with `CCNC(=S)NS(=O)(=O)c1cc2c(cc1OC)OCCC2CNC(=O)c1cc(F)ccc1OC` (centres undefined), 207 °C; with `CC(=O)ON(CCOc1ccc2c(c1)CCN(CCCc1ccc(F)cc1)C2=O)C(N)=O`, 113 to 114 °C. Turning to `COC1(c2cc(F)cc(CC#COC#CCc3cc(F)cc(C4(OC)CCOCC4)c3)c2)CCOCC1`, the melting point is 75 to 77 °C. For the compound `CCOC(=O)C1C=CC(c2ccccc2)n2c(=O)n(CCl)c(=O)n21` (centres undefined), the melting point lay in the range of 145 to 146 °C.

As to `CCNn1cc(C(=O)O)c(=O)c2cc(F)c(Cl)cc21`, the melting point came out at 258 °C. With `O=c1[nH]c(-c2ccc(C(F)(F)F)cc2C(F)(F)F)nn1-c1cc(Cl)ccc1O` the figure was 270 to 275 °C. In the case of `CCCCCN1C(=O)C2(COc3cc4c(cc32)CCO4)c2ccccc21` (centres undefined), the melting point fell in the range of 128 to 129 °C.

For the compound `O=C(Nc1nccs1)c1ccc(CN2C(=O)C3(COc4cc5c(cc43)CCO5)c3ccccc32)cc1` (centres undefined), the melting point is over 250 °C. For the compound `COc1ccc(OCC(O)CCN2CCN(c3ccccc3)CC2)cc1` (centres undefined), the melting point fell in the range of 103 to 105 °C. Consider `CCOC(=O)c1cccc(-c2coc3c(C)c(O)ccc3c2=O)c1`, for which the melting point was 222 °C. `Cc1c(O)c2c(c(C)c1NC(=O)CC(C)(C)C)[C@@H](c1ccc(C(C)C)cc1)CO2` returned a melting point of 181 to 182 °C. Turning to `CC(C)C(=NSN(C)C(=O)Oc1cccc2c1OC(C)(C)C2)Sc1ccccc1`, the melting point was 104 to 106 °C. With `Clc1n[nH]c2cccc(NC3=NCCN3)c12` the figure was 245 to 250 °C; with `CN(C)CCCNC(=O)Cn1cnc(-c2ccccc2)c1-c1ccccc1`, 92 to 94 °C. For the compound `CCCOc1ccccc1-c1nc2nc(N)nnc2c(=O)[nH]1`, the melting point is 255 to 256 °C.

The compound `CN(C)C(=O)Nc1c(C(=O)c2occc2CO)[nH]c2cc(Cl)ccc12` gave a melting point of 238 °C. In the case of `CCCCC1=N/C(=C\c2c[nH]c3ncccc23)C(=O)N1C`, the melting point fell in the range of 220 to 222 °C. `CC1COc2c(N3Cc4ccccc4C3)c(F)cc3c(=O)c(C(=O)O)cn1c23` (centres undefined): the melting point is over 300 °C. With `O=C(Nc1cscn1)Nc1cccc2c1C1CCCCN1C2=O` (centres undefined), the melting point lay within 178 to 180 °C. Take `O=C1CC(c2cccc(-n3ccnc3)c2)=Nc2ccc(-c3ccc(OCc4ccccc4)nc3)cc2N1`: the melting point lay within 225 to 231 °C. For `CC1CC2=CC(=O)CCC2C2CCC3(C)C(C(F)F)CCC3C12` (centres undefined), the melting point is 131 to 135 °C.

For the compound `CC(C(=O)OCc1ccccc1)c1cccc(NC(=O)NCC(=O)N2[C@@H](c3ccccc3)CC[C@H]2C(=O)OC(C)(C)C)c1` (some centres undefined), the melting point is 75 °C. Compound `COC(=O)C(c1ccc(Cl)cc1)c1ncc(C(F)(F)F)cc1Cl` (centres undefined) returned a melting point of 103 to 104 °C. Take `O=C(CO)c1ccc(Oc2ccccc2)cc1`: the melting point lay within 67 to 69 °C.

With `CCCCc1ccnc(C2(C(=S)NC)CCCS2)c1` (centres undefined), the melting point was 102 °C. Compound `CSC(=NC#N)NS(=O)(=O)c1cc(Cl)ccc1Cl` displayed a melting point of 145 °C.

For the compound `CCn1cc(C(=O)O)c(=O)c2cc(F)c(N3CCN(C)C(c4cc[nH]c4)C3)cc21` (centres undefined), the melting point was 150 to 152 °C. With `Cc1nc(N2CCN(Cc3ccc(OC(F)(F)F)cc3)C2=O)sc1C(N)=O` the figure was 185 to 187 °C. With `Cc1ccc(C(=O)Nc2ccc(C[C@H](NC(=O)Nc3ccccc3S(=O)(=O)c3ccccc3)C(=O)O)cc2)c(Cl)n1` the figure was 210 °C; with `O=C(Cn1cccc(NC(=O)OCc2ccccc2)c1=O)NC(Cc1ccccc1)C(=O)C(F)(F)F` (centres undefined), 113 to 117 °C; with `COCCOc1c(C)cc(C#CC2(O)CN3CCC2CC3)cc1C` (centres undefined), 120 °C.

`Cc1c(C(=O)Nc2ccc(N3CCC(N4CCC(=O)CC4)CC3)c(C#N)c2)cnn1-c1ccc(Cl)cc1` gave a melting point of 213 °C. With `O=C(O)C[S@](=O)C(c1ccccc1)c1ccccc1` the figure was 118 to 120 °C; with `O=C(COc1ccccc1)N[C@@H](Cc1ccc([N+](=O)[O-])cc1)C(=O)O`, 147 °C; with `N#Cc1cc(F)c(N)cc1Oc1ccc2ccccc2c1`, 89 °C.

As for `N#CC(C#N)(CCCSC(F)(F)F)CC(F)(F)C(F)(F)C(F)(F)C(F)(F)C(F)(F)F`, the melting point lay within 88 to 90 °C. `Fc1ccc(Cn2c(NC3CCN(CCNc4nnnn4-c4ccccc4)CC3)nc3ccccc32)cc1` returned a melting point of 171 °C. For `CCOC(=O)C1(NS(=O)(=O)c2ccc3c(Cl)cnc(NC(=N)N)c3c2)CCCC1`, the melting point is 225 to 226 °C. On to `N#Cc1ccc(NC(=O)c2cccc(S(=O)(=O)N3CCOCC3)c2)c(-c2nnn[nH]2)c1`, for which the melting point lay within 230 to 232 °C. `CC(C#CC1CC(Oc2ccc(C(F)(F)F)cc2)C1)N(O)C(N)=O` (single isomer, unassigned; (+)) displayed a melting point of 113 to 114 °C. With `Cc1cc(NC(=O)NN(c2ccccc2)c2cccc(C#N)c2)ccc1N1CCCCC1=O` the figure was 161 to 162 °C; with `CN1C2CCCC1CC(NC(=O)c1cccc3oc(-c4ccc(F)cc4)nc13)C2` (centres undefined), 197 to 199 °C. Turning to `CC1(c2ccc3c(c2)CC(=O)N3CC(F)(F)F)OCCO1`, the melting point lay within 87 to 89 °C. With `CCC(F)c1cc(N2CCNCC2)cc(-c2ccccc2C#N)c1Cl` (centres undefined) the figure was 159 °C; with `CC(=O)c1cc(C)c2c(n1)-c1ccccc1C2=O`, 170 to 172 °C; with `CC(NC(=O)C1C(CO)N(Cc2ccccc2)C(=O)N1Cc1ccccc1)c1ccc2ccccc2c1` (centres undefined), 170 to 175 °C. With `COc1cc(OC)c2c(=O)[nH]c(-c3cc(C)c(OCCN4CCCC4)c(C)c3)nc2n1` the figure was 228 to 230 °C; with `C=C1CCN(c2ccc(Cl)cc2)C1=O`, 119 to 120 °C; with `CC(C)(C)OC(=O)NCCNC(=O)c1ncccc1Oc1ccccc1Cl`, 86 to 87 °C.

As for `CCC(CC)c1ccc(Cl)c2nc3n(c12)CCN3C(=O)c1ccc(Cl)nc1`, the melting point fell in the range of 205 to 207 °C. As for `CC(C)c1nc(-c2ncn3c2CN(C(=O)N2CCCC2)c2c(F)cccc2-3)no1`, the melting point fell in the range of 169 to 170 °C. Consider `CCSN(C)C(=O)Nc1ccc(C)c(Cl)c1`, for which the melting point was under 50 °C. With `COC(=O)c1ncn(C2OC(COC(C)=O)C(OC(C)=O)C2OC(C)=O)n1` (centres undefined), the melting point fell in the range of 107 to 109 °C. Compound `CC(C)Oc1cccc(NC(=O)OCc2c(-c3ccccc3)c3cc(Cl)ccc3c(=O)n2C)c1` came in with a melting point of 205 to 207 °C.

`C#CCCCCNC(=O)C(F)(F)F` returned a melting point of 41 to 42.5 °C.

In turn, `CCOC(=O)C=Cc1ccc(C(C)(C)C)c(NC(=O)CC2c3ccccc3Oc3ccccc32)c1` registered a melting point of 180 to 181 °C.

In turn, `CN1CC[C@@H](c2c(O)cc(O)c3c(=O)cc(-c4ccc([N+](=O)[O-])cc4)oc23)[C@@H]1CO` returned a melting point of 275 to 277 °C.

Compound `N#CN=c1ccccn1C1=CC(CF)(CF)Oc2ccc([N+](=O)[O-])cc21` returned a melting point of 238 to 240 °C. Take `CC(C)(C)CC(C)(C)NC(=O)c1cc(C(C)(C)C)c(OC(=O)c2cc(C(C)(C)C)c(O)c(C(C)(C)C)c2)c(C(C)(C)C)c1`: the melting point lay within 213 to 215 °C. For `CCOC=CC(=O)Nc1ccc(-n2cnc(C)c2)cc1`, the melting point was 214 to 216 °C. With `O=c1[nH]c2ccc(-c3cccnc3)cc2cc1Br` the figure was 297 to 300 °C; with `CSc1cc2c(cc1C(F)(F)F)N(C(=O)Nc1cccc(C(=O)NCCN(C)C)c1)CC2`, 91 to 93 °C. Regarding `CC(=O)Oc1cc2c(cc1F)C1(OC(=O)c3c1ccc(N)c3N)c1cc(F)c(OC(C)=O)cc1O2`, the melting point came out at 135 °C. With `Cc1c(F)c(N)c(Cl)c2c1c(=O)c(C(=O)O)cn2-c1cc(N)c(F)cc1F` the figure was over 280 °C; with `Clc1cc(Cl)c2cccc3c2c1N=C3NCCCn1ccnc1`, 182 to 183 °C; with `Cc1cn2c(N)c(Cl)cc(C(=O)NCC3CCN(CC(=O)C(C)(C)C)CC3)c2n1`, 198 °C. For the compound `CCCCCCCCC(Oc1ccc(C(=O)CCCCCCC)cc1)C(=O)O` (racemic), the melting point lay within 45 to 47 °C. For the compound `CCN(CC)c1nc2ccnn2c2ncccc12`, the melting point was 102 °C. Turning to `COc1cc(Nc2c(C#N)cnc3cc(-c4ccc(CN5CCOCC5)cc4)c(OC)cc23)c(Cl)cc1Cl`, the melting point was in the range of 108 to 110 °C.

In turn, `CCOC(=O)CN(CCc1ccccc1)C(=O)CCc1nc2c(F)c(F)cc(F)c2s1` registered a melting point of 78 to 81 °C. With `Nc1nc2cc(Br)ccc2c2c1nc(CNC(=O)C1CC1)n2CC1CCOCC1`, the melting point was 240 °C.

Source of the values: a melting point compilation (Tetko et al.; mined from patent text by program, amines drawn as free bases though some values may be those of a salt).
